Measurements as given in patent US20170188606A1, “COMPOUNDS, COMPOSITIONS, AND METHODS FOR REDUCING OR E[…] TASTE” (Chromocell Corporation, priority 2014, published 2017).

Experiments:
[1] = test system: bitterness of 500 ppm RebA; assay: Discrimination testing with sureness (Latin square 2-AFC) and R-index analysis, aqueous RebA; assay type: in vivo, Humans; conditions: 5 ppm in 500 ppm RebA, Discrim. Sureness, N 34, vs control
From the text: The discrimination testing with sureness extends the simple yes/no task of discrimination test in a signal detection procedure to include a sureness rating scale. The discrimination test principle is based on two alternative forced choice (2-AFC) manner, in this methodology, panelists are presented with multiple samples, in which one sample is a control, and the other sampled are test variants. A blind control is included in the test variants along with a known control. Panelists are asked to first discriminate between the known control and a variant by identifying which the sample is less bitter. Second, panelists rate their sureness of their response (e.g., sure, unsure, or guess).
To minimize bias and prevent panelist expectation of sample order, a Latin square randomization design is utilized. The samples within a set will be randomized and the sets are randomized via Latin square. The number of presentations is equally distributed. Each of the test samples is evaluated against a negative control sample to calculate R-index score and associated p-value. […] R-index is utilized to indicate the degree of difference between the test and the control sample. […]
The blocker candidates were evaluated in a “sip and spit” format using this methodology and analysis and were the results of at least 30 observations (e.g., 15 panelists and 2 replications or 10 panelists 3 replications).

[2] = test system: bitter taste in grape-flavored cough syrup (Robitussin Cough and Cold CF); assay: Cough syrup 2-AFC analysis (Example 3); assay type: in vivo, Humans; conditions: 0.1 ppm in cough syrup; testers n=7
Method: (§1) Compound 1 was screened for a reduction of bitter taste due to a bitter tastant in children's grape flavored cough syrup (Robitussin Cough and Cold CF™, Lot #: R10494, Exp. 07/15). Compound 1 was solubilized in […] (PG), dosed into the cough syrup, and placed in 3 mL amounts in sample vials. Control samples contained an equal amount of PG to samples containing Compound 1. Testers (n=7) were asked to use a plastic transfer pipette for tasting, rinsing with water between samples and choosing the less bitter sample via the two alternative forced choice (2-AFC) method.

[3] = test system: bitter taste in grape-flavored cough syrup (Robitussin Cough and Cold CF); assay: Cough syrup 2-AFC analysis with 50 ppb and 100 ppb (Example 4); assay type: in vivo, Humans; conditions: for Cmpd. Chosen Overall: chosen as less bitter, n=11
Method: as §1, with “2.5” for “3”, “vials to afford 50 ppb or 100 ppb Compound 1 in the samples.” for “vials.”, “(n=11)” for “(n=7)”

sweetness perception = assay: Inherent sweetness assessment using 2-AFC method vs 1.5% sucrose; assay type: in vivo, human; conditions: for % correct: % needed 67%; for x (choosing Sample 1 as sweeter): n 36
Method: Sucrose solutions were prepared by adding sucrose to water to achieve the desired concentrations. Compounds were first prepared as 250-fold concentrated stocks in a 50% ethanol (200 proof), 50% water solution. These concentrated stocks were then diluted in water to achieve a final ethanol concentration of 0.2%. The control solutions were also normalized to 0.2% ethanol.
Compound 1 was evaluated in an aqueous solution for sweetness perception in a 2-AFC test. This test was a double-blinded, randomized study where taste panelists evaluate a pair of solutions one at a time for sweetness. Panelists were instructed not to eat or drink (except water) for at least one hour before the test. During the test, panelists were instructed to sip each sample, swirl it around their mouth and then expectorate. After tasting each sample in the pair, panelists were instructed to record the sample that is “sweeter” in taste. Panelists cleansed their palates by rinsing with water, eating a cracker and waiting for an interval of about 5 minutes. Each pair was tasted twice. All samples were tasted at ambient temperatures. Compound 1 (at various concentrations) was evaluated in comparison to the control, 1.5% sucrose. The flavor and extract manufacturers association (FEMA) characterizes any compound that has a sweetness intensity greater than that of 1.5% in a water base as inherently sweet.
Control Sample (Sample 1): 1.5% sucrose in water
Test Samples (Sample 2): • 10 μg/mL (10 ppm) Compound 1 in 0.2% ethanol in water • 2 μg/mL (2 ppm) Compound 1 in 0.2% ethanol in water • 0.5 μg/mL (500 ppb) Compound 1 in 0.2% ethanol in water
Eighteen subjects completed two replicates of a 2-AFC test for sweetness. Thirty three responses indicated the Control Sample was sweeter for each of the test samples evaluated. Three responses indicated the Test Sample was sweeter for each of the test samples evaluated. Using a beta binomial distribution, p=0.000 (two-sided alternative).

[4] = test system: bitter taste of Orange VitaminWater (Stevia Leaf Extract, rebaudioside A); assay: Descriptive analysis (DA) panel taste test, Orange VitaminWater
[5] = test system: bitter taste of rebaudioside A; assay: Descriptive analysis (DA) panel taste test, aqueous rebaudioside A
[6] = test system: bitter taste receptor (T2R); conditions: Compound 1 3.2 mM in the absence of rebaudioside A; vs vehicle control
Method: Both the rebaudioside A and Compound 1 solutions were prepared in a standard HEPES buffer solution. Rebaudioside A was evaluated at a concentration of 825 μM and Compound 1 was evaluated at 3.2 mM (in the presence and absence of 825 μM rebaudioside A) and compared to vehicle control (HEPES buffer solution). Cells were incubated with a calcium responsive dye for one hour at 37 C and then exposed to rebaudioside A, Compound 1 (in the presence and absence of 825 μM rebaudioside A) and vehicle control. Change in fluorescence prior to compound addition and after compound addition was monitored for five minutes using a Hamamatsu Functional Drug Screening System (FDSS) 6000. The difference in fluorescence response over vehicle control was calculated using maximal cellular responses for each compound.

[7] = Compound 1 @ 0.5 μg/mL in water vs 1.5% sucrose
[8] = Compound 1 @ 2 μg/mL in water vs 1.5% sucrose
[9] = Compound 1 @ 10 μg/mL in water vs 1.5% sucrose
[10] = Panel A, Orange Vitamin Water Zero + Compound 1 @5 ppm, 15 cm scale
[11] = Panel B, fully solubilized, Orange VitaminWater (head: 500 ppm Reb-A) + Compound1 @0.25 ppm, 0.2% ethanol
[12] = Panel A, 500 ppm RebA + Compound 1 @7.5 ppm in water, 15 cm scale
[13] = Panel B, fully solubilized, 500 ppm Reb-A + Compound 1 @0.3 ppm, aqueous, 0.2% ethanol

SMILES: CN[C@@H](Cc1c[nH]c2ccccc12)C(=O)O [Compound 1, N-methyl-L-tryptophan]
- R-index [1]: 63.3%
- Compound Chosen as Less Bitter [2]: 5
- Control Chosen as Less Bitter [2]: 1
- No Choice Made [2]: 1
- Chosen if 1st in Pair ([3]; 50 ppb in cough syrup): 5/6
- Chosen if 2nd in Pair ([3]; 50 ppb in cough syrup): 2/5
- Chosen in 1st Pair ([3]; 50 ppb in cough syrup): 5/6
- Chosen in 2nd Pair ([3]; 50 ppb in cough syrup): 2/5
- Cmpd. Chosen Overall ([3]; 50 ppb in cough syrup): 7/11
- Chosen if 1st in Pair ([3]; 100 ppb in cough syrup): 4/5
- Chosen if 2nd in Pair ([3]; 100 ppb in cough syrup): 3/6
- Chosen in 1st Pair ([3]; 100 ppb in cough syrup): 3/5
- Chosen in 2nd Pair ([3]; 100 ppb in cough syrup): 4/6
- Cmpd. Chosen Overall ([3]; 100 ppb in cough syrup): 7/11
- d′ (sweetness perception; [7]): 1.956
- % correct (sweetness perception; [7]): 92%
- x (choosing Sample 1 as sweeter) (sweetness perception; [7]): 33
- d′ (sweetness perception; [8]): 1.956
- % correct (sweetness perception; [8]): 92%
- x (choosing Sample 1 as sweeter) (sweetness perception; [8]): 33
- d′ (sweetness perception; [9]): 1.956
- % correct (sweetness perception; [9]): 92%
- x (choosing Sample 1 as sweeter) (sweetness perception; [9]): 33
- inherent sweetness (sweetness perception; concentrations up to 10 μg/mL (10 ppm), 0.2% ethanol in water, vs 1.5% sucrose): do not elicit inherent sweetness
- Bit Aft [4, 10]: 2.94
- Bitter [4, 10]: 4.97
- HPB [4, 10]: 6.83
- Licorice [4, 10]: 2.74
- Swt Aft [4, 10]: 3.89
- Swt Linger [4, 10]: 1.99
- Bitter [4, 11]: 3.9
- HPB [4, 11]: 5.4
- Bitter [5, 12]: 5.32
- Bitter Aft [5, 12]: 3.18
- HPB [5, 12]: 7.70
- Licorice [5, 12]: 6.58
- Sweet Aft [5, 12]: 4.71
- Sweet Linger [5, 12]: 2.55
- Bitter [5, 13]: 3.4
- Bitter Aft [5, 13]: 1.6
- HPB [5, 13]: 5
- fluorescent response from Compound 1 on its own [6]: not significantly different from vehicle control
